Data set [1] has as its target T1, Human Liver Microsomal 2,3-oxidosqualene-lanosterol Cyclase (OSC) (Homo sapiens, UniProt P48449).
T1 construct: Liver microsomes from a healthy volunteer were prepared in sodium phosphate buffer (pH 7.4); from tissue; host or cells: human liver microsomes (healthy volunteer)
T1 sequence (P48449 1-732): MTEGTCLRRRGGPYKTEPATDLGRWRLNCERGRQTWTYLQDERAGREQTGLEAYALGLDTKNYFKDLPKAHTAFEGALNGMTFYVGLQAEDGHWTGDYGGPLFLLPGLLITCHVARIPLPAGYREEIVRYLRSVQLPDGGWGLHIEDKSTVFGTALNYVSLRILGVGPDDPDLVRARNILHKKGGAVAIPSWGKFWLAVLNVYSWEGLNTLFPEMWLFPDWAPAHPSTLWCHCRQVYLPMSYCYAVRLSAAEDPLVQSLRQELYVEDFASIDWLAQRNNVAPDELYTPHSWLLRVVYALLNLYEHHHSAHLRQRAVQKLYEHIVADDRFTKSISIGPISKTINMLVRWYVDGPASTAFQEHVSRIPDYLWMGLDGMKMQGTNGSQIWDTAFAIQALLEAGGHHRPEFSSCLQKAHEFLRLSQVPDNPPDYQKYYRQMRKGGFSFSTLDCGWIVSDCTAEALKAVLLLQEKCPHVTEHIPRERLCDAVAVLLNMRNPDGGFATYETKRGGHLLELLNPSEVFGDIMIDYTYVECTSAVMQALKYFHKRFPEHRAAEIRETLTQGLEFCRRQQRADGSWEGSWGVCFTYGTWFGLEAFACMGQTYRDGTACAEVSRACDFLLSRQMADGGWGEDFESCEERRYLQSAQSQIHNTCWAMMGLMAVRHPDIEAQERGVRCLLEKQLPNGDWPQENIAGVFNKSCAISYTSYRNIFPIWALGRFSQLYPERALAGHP
Put plainly: Inhibition of human liver microsomal 2,3-oxidosqualene-lanosterol cyclase (OSC). Type of data set: biochemical. Conditions: read-out: percentage OSC inhibition against controls. The protocol:
Inhibition of Human Liver Microsomal 2,3-oxidosqualene-lanosterol Cyclase (OSC)
Liver microsomes from a healthy volunteer were prepared in sodium phosphate buffer (pH 7.4). The OSC activity was measured in the same buffer, which also contained 1 mM EDTA and 1 mM dithiothreitol. The microsomes were diluted to 0.8 mg/ml protein in cold phosphate buffer. Dry [^14C]R,S-monooxidosqualene (MOS, 12.8 mCi/mmol) was diluted to 20 nCi/μl with ethanol and mixed with phosphate buffer-1% BSA (bovine serum albumin). A stock solution of 1 mM test substance in DMSO was diluted to the desired concentration with phosphate buffer-1% BSA. 40 μl of microsomes were mixed with 20 μl of the solution of the test substance and the reaction was subsequently started with 20 μl of the [^14C]R,S-MOS solution. The final conditions were 0.4 mg/ml of microsomal proteins and […] of [^14C]R,S-MOS in phosphate buffer, pH 7.4, containing 0.5% albumin, DMSO<0.1% and ethanol<2%, in a total volume of 80 μl.
After 1 hour at 37° C. the reaction was stopped by the addition of 0.6 ml of 10% KOH-methanol, 0.7ml of water and 0.1 ml of hexane:ether (1:1, v/v) which contained 25 μg of non-radioactive MOS and 25 μg of lanosterol as carriers. After shaking, 1 ml of hexane:ether (1:1, v/v) was added to each test tube, these were again shaken and then centrifuged. The upper phase was transferred into a glass test tube, the lower phase was again extracted with hexane:ether and combined with the first extract. The entire extract was evaporated to dryness with nitrogen, the residue was suspended in 50 μl of hexane:ether and applied to a silica gel plate. Chromatographic separation was effected in hexane:ether (1:1, v/v) as the eluent. The Rf values for the MOS substrate and the lanosterol product were 0.91 and, respectively, 0.54. After drying, radioactive MOS and lanosterol were observed on the silica gel plate. The ratio of MOS to lanosterol was determined from the radioactive bands in order to determine the yield of the reaction and OSC inhibition.
The test was carried out on the one hand with a constant test substance concentration of 100 nM and the percentage OSC inhibition against controls was calculated.
In addition, the test was carried out with different test substance concentrations and subsequently the IC50 value was calculated, i.e. the concentration required to reduce the conversion of MOS into lanosterol to 50% of the control value.
On the technique in general: Microsomes from liver hold many membrane-bound enzymes, among them those of drug oxidation.

Where [2] appears, read: constant test substance concentration of 100 nM, human liver microsomes, [14C]R,S-MOS, 1 hour at 37° C.

This is an account of results in patent publication US7442791B2, “Aminoalkylamide substituted cyclohexyl derivatives” (Hoffmann-La Roche Inc., priority 2003, dated 2008).

Like-named read-outs stand apart in the source and are kept apart here.

As a reminder, the melting point is the temperature of the solid-liquid transition. Broadly, the inhibition is the percentage by which the read-out fell short of the control.

For the compound `CN(C)CCN(C)C(=O)[C@H]1CC[C@H](N(C)S(=O)(=O)c2ccc(C(F)(F)F)cc2)CC1` [Example 4.4, trans-4-[methyl-(4-trifluoromethyl-benzenesulfonyl)-amino]-cyclohexanecarboxylic acid (2-dimethylamino-ethyl)-methyl-amide], the melting point was determined as 83 °C.

Take `CN(C)CCN(C)C(=O)[C@H]1CC[C@H](CN(C)C(=O)Oc2ccc(Cl)cc2)CC1` [Example 5.4, trans-{4-[(2-dimethylamino-ethyl)-methyl-carbamoyl]-cyclohexylmethyl}-methyl-carbamic acid 4-chloro-phenyl ester]: the inhibition at 0.1 µM in data set [1] worked out at 51%.

`CN(C)CCN(C)C(=O)CCO[C@H]1CC[C@H](N(C)S(=O)(=O)c2ccc(C(F)(F)F)cc2)CC1` [Example 1.6, trans-N-(2-dimethylamino-ethyl)-N-methyl-3-{4-[methyl-(4-trifluoromethyl-benzenesulfonyl)-amino]-cyclohexyloxy}-propionamide]: the inhibition at 0.1 µM in data set [1] (setting [2]) turned out to be 61%.

Consider `CN(C)CCN(C)C(=O)CC[C@H]1CC[C@H](CN(C)S(=O)(=O)c2ccc(C(F)(F)F)cc2)CC1` [Example 22.6, trans-N-(2-dimethylamino-ethyl)-N-methyl-3-(4-{[methyl-(4-trifluoromethyl-benzenesulfonyl)-amino]-methyl}-cyclohexyl)-propionamide], for which, in data set [1] (setting [2]), the inhibition at 0.1 µM is 56%.

Take `CCN(CCO)CCN(C)C(=O)[C@H]1CC[C@H](CCN(C)c2ncc(Br)cn2)CC1` [Example 15.4, trans-4-{2-[(5-bromo-pyrimidin-2-yl)-methyl-amino]-ethyl}-cyclohexanecarboxylic acid {2-[ethyl-(2-hydroxy-ethyl)-amino]-ethyl}-methyl-amide]: the inhibition at 0.1 µM in data set [1] (setting [2]) is 65%.
